Reference: patent US20260317356A1, “SMALL MOLECULE MODULATORS OF OGG1” (AZKARRA THERAPEUTICS, INC., priority 2023, published 2026)

Columns and labels:
nLucOGG1 in HeLa cells = biological target: T1, nLucOGG1 in HeLa cells (Homo sapiens, UniProt O15527); assay: Cellular Thermal Shift Assay to measure compound affinity for nLucOGG1 in HeLa cells (CETSA DTm); type: cell-based; details: 10 μM compound, 37° C. 60 min, Tm vs DMSO control
T1 construct: thermal shift read by NanoGlo luminescence
Procedure: Biological Example 2: Cellular Thermal Shift Assay to Measure Compound Affinity for ^nLucOGG1 in HeLa Cells (CETSA DTm)
Cell Culture and Transfection of Hela Cells with ^nLucOGG1: For all tests, Hela cells were maintained in growth medium, Dulbecco's Minimum Eagle Medium (Multicell: Cat #319-005-CL) supplemented with 10% heat-inactivated fetal bovine serum (Gibco: Cat #12484-028) at 37° C. and 5% CO2 in a humidified tissue culture incubator. Transient transfections were performed using the Lonza 4-D Nucleofector X unit according to the manufacturer's protocol (Lonza Cat #V4XC-1024). Briefly, for each transfection, 1.2×10^6 cells were centrifuged at 1000 RPM for 5 minutes at room temperature before being diluted in 100 μL SE solution containing 18% v/v supplement and 1.5 μg pNF1-N-empty or pNF1-N-OGG1a vector. The total volume was transferred to a 100 μL nucleofection cuvette prior to transfer to the apparatus where HeLa cell nucleofection protocol CN-114 was executed. Following nucleofection, 500 μL complete media was added to the cells in the cuvette before transferring to a 6-well dish containing 1.5 mL of complete media. Cells were left to incubate for 48 hours before performing all cellular thermal shift experiments.
Cellular Thermal Shift Assays for Target Engagement (CETSA): Forty-eight hours following nucleofection, cells were washed once with DPBS−/−(Multicell: Cat #311-425-CL) and lifted with 0.25% Trypsin-EDTA (Multicell: Cat #325-043-CL) prior to dilution in growth medium and centrifugation at 1000 RPM for 5 minutes at room temperature. The resulting cell pellet was then resuspended in growth medium, cells were counted and the volume adjusted to 500 k cells/mL (2×).
For delta Tm determination, OGG1 inhibitor compounds were dissolved in DMSO to a final working concentration of 20 mM. Working solutions were then diluted in complete media to 20 μM or 0.1% DMSO for the vehicle control (2×). 2×OGG1 inhibitor compound solutions or 0.1% DMSO control were then pre-dispensed into MicroAmp Optical 96-well PCR reaction plates (Applied Biosystems: Cat #4346906) at 50 μL/well. Next, 50 μL or 25 k cells/well from the 2× cell suspension was added to the pre-loaded PCR plates. All plates were prepared as duplicates, covered with adhesive plate sealers (Perkin Elmer: Cat #6050185) and left to incubate at 37° C. for 60 minutes. During incubation, sufficient NanoGlo luciferase assay reagents (Promega: Cat #N1120) were left to equilibrate to room temperature in the dark. Immediately before heating the plates, the NanoGlo substrate was mixed with the NanoGlo buffer at a 1:50 ratio. The thermal cycler (Veriti 96-Well Thermal Cycler, Thermo Fisher Scientific) was allowed to reach the designated temperature prior to placement of the PCR plate into the heating block. For Tm determination experiments, duplicate plates containing a fixed concentration of test compound (10 μM final) as well as vehicle control were prepared to perform a 12-point temperature gradient spanning 37-70° C. for 3 minutes. Therefore, two thermal cycler protocols were set up covering two 6-step temperature gradients ranging from 37-52° C. and 52-70° C. Plates were then allowed to cool at room temperature for 5 minutes after the heat treatment followed by transfer of 75 μL of the reaction into a 96-well white polystyrene microplate (Corning: Cat #CLS3903) and addition of 75 μL of the prepared NanoGlo mixture. Microplates were then left to shake in the dark for 5 minutes before total luminescence was measured on a SpectraMax IX3 plate reader. The luminescence value obtained at each temperature was normalized to the luminescence obtained at 37° C. and the ratio obtained was plotted against the temperature. A Boltzman Sigmoidal non-linear regression was applied to the resulting data to determine Tm values and the difference between the Tm value for a given OGG1 inhibitor relative to the DMSO vehicle control was the delta Tm.

hOGG1 = hOGG1 (Homo sapiens, UniProt O15527); assay: Surface Plasma Resonance with hOGG1 to measure compound affinity (OGG1 SPR Kd); type: binding; set-up: Protein His-hOGG1 (12-323) was prepared; details: Biacore T-200, immobilized his-tagged OGG1; pH 7.4; 2% DMSO; single-cycle kinetics
Chain of hOGG1 (O15527 12-323): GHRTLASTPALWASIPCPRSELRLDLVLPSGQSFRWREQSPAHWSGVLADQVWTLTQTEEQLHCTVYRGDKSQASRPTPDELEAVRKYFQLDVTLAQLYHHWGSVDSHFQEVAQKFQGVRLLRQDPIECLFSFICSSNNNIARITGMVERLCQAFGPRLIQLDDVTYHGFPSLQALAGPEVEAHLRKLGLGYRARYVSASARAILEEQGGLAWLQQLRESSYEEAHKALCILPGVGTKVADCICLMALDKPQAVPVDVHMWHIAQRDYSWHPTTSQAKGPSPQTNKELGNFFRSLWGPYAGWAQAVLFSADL
Procedure: Surface Plasma Resonance with hOGG1 to Measure Compound Affinity (OGG1 SPR Kd); All the SPR studies were performed on a Biacore T-200 instrument (Cytiva life sciences) using series S NTA sensor chip (cat #BR-1005-32, Cytiva life sciences). Recombinant his-tagged OGG1 (mol. wt. 36003; ChemPartner, Shanghai, China) was immobilized on NTA sensor chip via Ni^2+/NTA chelation using NTA reagent kit (Cytiva life sciences; cat #289950) as per manufacturer's recommended protocol. The running buffer during immobilization contained HEPES (20 mM, pH 7.4), 150 mM NaCl, 0.5 mM TCEP (tris(2-carboxyethyl)phosphine), and 0.005% Tween-20. NTA sensor chip (experimental cell) was first conditioned by injecting regeneration solution (350 mM EDTA, flow rate 30 μL/min, 2 injections 60 each). Additional wash with 50 mM NaOH was used whenever the chip was regenerated (flow rate 30 μL/min, 1 injection of 60 s). The sensor chip was then activated with 0.5 mM NiCl2 (flow rate 10 μL/min, 2 injection of 60 s, leading to a baseline increase of ~40 RU), and the excess Ni^2+ was removed using immobilization buffer containing 3 mM EDTA (flow rate 10 μL/min, 1 injection of 60 s). Finally, OGG1 (diluted to 6.2 μg/mL in running buffer) was injected on the activated sensor chip at a flow rate of 10 μL/min until immobilization level reached ~6000 RU. Any loosely bound protein was removed by passing the immobilization buffer overnight at 20 μL/min. At this point, the drift in baseline was ~0.01 RU/s and the final immobilization level was ~2500 RU. Reference cell was left untreated. SPR binding experiments were performed using binding buffer (20 mM HEPES (pH 7.4), 150 mM NaCl, 0.5 mM TCEP, 0.005% Tween-20, and 2% DMSO) at a flow rate of 30 μL/min. Single-cycle kinetics approach was used for binding analysis which consisted of sequential injections of increasing concentrations of test compound (a 3-fold serial dilution with 5 concentrations; highest 750 or 1500 nM; with final DMSO concentration at 2%) over the immobilized protein without regeneration step between each sample injection. Each injection was 45 seconds long (contact time), followed by a final dissociation of 600 sec. The Biacore T-200 Evaluation software 3.1 (GE Healthcare) was used to determine kinetic parameters from SPR data. All the reported sensograms were reference subtracted and corrected for refractive index contributions from solvent using 8-point solvent correction (1.4 to 2.8% DMSO in binding buffer). Data were fit to both steady state and 1:1 kinetic model to obtain Kon, Koff and binding affinity (Kd).

T1 sequence (O15527 whole entry): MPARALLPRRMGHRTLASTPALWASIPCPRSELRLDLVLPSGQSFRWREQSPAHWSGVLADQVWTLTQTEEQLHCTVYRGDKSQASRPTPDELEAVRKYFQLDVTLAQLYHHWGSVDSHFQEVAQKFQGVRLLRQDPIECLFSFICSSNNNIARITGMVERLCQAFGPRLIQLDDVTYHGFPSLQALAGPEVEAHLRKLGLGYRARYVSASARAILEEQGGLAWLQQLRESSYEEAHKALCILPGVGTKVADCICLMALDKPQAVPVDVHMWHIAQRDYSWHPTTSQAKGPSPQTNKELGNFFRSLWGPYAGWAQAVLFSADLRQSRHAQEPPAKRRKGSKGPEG

Which ΔTm at 10 µM (nLucOGG1 in HeLa cells) does the source give for `COc1cc(NC(=O)[C@H]2CC[C@@H](N3Cc4c(C)ccc(P(C)(C)=O)c4NC3=O)CC2)ccc1C` [Example 5, (1s,4s)-4-(8-(Dimethylphosphoryl)-5-methyl-2-oxo-1,2-dihydroquinazolin-3(4H)-yl)-N-(3-methoxy-4-methylphenyl)cyclohexanecarboxamide] here?
Its ΔTm at 10 µM is 6 to 8 °C.

What about the Kd (hOGG1) of the same molecule?
Its Kd is at most 10 nM.

Which ΔTm at 10 µM (nLucOGG1 in HeLa cells) does the source give for `COc1cc(NC(=O)[C@H]2CC[C@@H](N3Cc4c(C)cc(CN)cc4NC3=O)CC2)ccc1C` [Example 28, (1s,4s)-4-(7-(Aminomethyl)-5-methyl-2-oxo-1,2-dihydroquinazolin-3(4H)-yl)-N-(3-methoxy-4-methylphenyl)cyclohexanecarboxamide] here?
The ΔTm at 10 µM was over 10 °C.

What about the Kd (hOGG1) of the same molecule?
Its Kd is at most 10 nM.

What does the source list for `COc1cc(NC(=O)[C@H]2CC[C@@H](N3Cc4c(C)ccc(OC)c4NC3=O)CC2)ccc1C` [Example 47, (1s,4s)-N-(3-Methoxy-4-methylphenyl)-4-(8-methoxy-5-methyl-2-oxo-1,2-dihydroquinazolin-3(4H)-yl)cyclohexanecarboxamide]?
ΔTm at 10 µM (nLucOGG1 in HeLa cells): 6 to 8 °C; Kd (hOGG1): 10 to 100 nM

Which results are given for `CNCCNc1cc(C)c2c(c1)C(=O)N([C@H]1CC[C@@H](C(=O)Nc3ccc(C)c(OC)c3)CC1)C2` [Example 193, (1s,4s)-N-(3-methoxy-4-methylphenyl)-4-(4-methyl-6-(2-(methylamino)ethylamino)-1-oxoisoindolin-2-yl)cyclohexanecarboxamide]?
ΔTm at 10 µM (nLucOGG1 in HeLa cells): > 10 °C; Kd (hOGG1): 10 to 100 nM

How did the ΔTm at 10 µM (nLucOGG1 in HeLa cells) turn out when `COc1cc(NC(=O)[C@H]2CC[C@@H](N3Cc4c(C)ccc(CNC(C)=O)c4NC3=O)CC2)ccc1C` [Example 17, (1s,4s)-4-(8-(Acetamidomethyl)-5-methyl-2-oxo-1,2-dihydroquinazolin-3(4H)-yl)-N-(3-methoxy-4-methylphenyl)cyclohexanecarboxamide] was run?
The ΔTm at 10 µM was over 10 °C.

And the Kd (hOGG1)?
Its Kd is at most 10 nM.

Which ΔTm at 10 µM (nLucOGG1 in HeLa cells) does the source give for `COc1cc(NC(=O)[C@H]2CC[C@@H](N3Cc4c(C)ccc(N5CC6(COC6)C5)c4NC3=O)CC2)ccc1C` [Example 35, (1s,4s)-N-(3-Methoxy-4-methylphenyl)-4-(5-methyl-2-oxo-8-(2-oxa-6-azaspiro[3.3]heptan-6-yl)-1,2-dihydroquinazolin-3(4H)-yl)cyclohexanecarboxamide] here?
The ΔTm at 10 µM was 6 to 8 °C.

What about the Kd (hOGG1) of the same molecule?
Its Kd is 10 to 100 nM.

How did the ΔTm at 10 µM (nLucOGG1 in HeLa cells) turn out when `COc1cc(NC(=O)[C@H]2CC[C@@H](N3Cc4c(C)cc(OCCN5CC(F)(F)C5)cc4C3=O)CC2)ccc1C` [Example 255, (1s,4s)-4-(6-(2-(3,3-Difluoroazetidin-1-yl)ethoxy)-4-methyl-1-oxoisoindolin-2-yl)-N-(3-methoxy-4-methylphenyl)cyclohexanecarboxamide] was run?
The ΔTm at 10 µM was 6 to 8 °C.

What about the Kd (hOGG1) of the same molecule?
The Kd was 10 to 100 nM.

How did the ΔTm at 10 µM (nLucOGG1 in HeLa cells) turn out when `COc1ccc(NC(=O)[C@]2(C)CC[C@H](N3Cc4c(C)ccc(OC)c4NC3=O)CC2)cc1C#N` (single isomer, unassigned) [Example 9, (1s,4s)-N-(3-cyano-4-methoxyphenyl)-4-(8-methoxy-5-methyl-2-oxo-1,2-dihydroquinazolin-3(4H)-yl)-1-methylcyclohexanecarboxamide] was run?
The ΔTm at 10 µM was 8 to 10 °C.

And the Kd (hOGG1)?
The Kd was at most 10 nM.

Which ΔTm at 10 µM (nLucOGG1 in HeLa cells) does the source give for `COc1cc(NC(=O)[C@H]2CC[C@@H](N3Cc4c(C)cc(N5CC6(COC6)C5)cc4NC3=O)CC2)ccc1C` [Example 30, (1s,4s)-N-(3-Methoxy-4-methylphenyl)-4-(5-methyl-2-oxo-7-(2-oxa-6-azaspiro[3.3]heptan-6-yl)-1,2-dihydroquinazolin-3(4H)-yl)cyclohexanecarboxamide] here?
The ΔTm at 10 µM was 8 to 10 °C.

What about the Kd (hOGG1) of the same molecule?
The Kd was 100 to 1000 nM.

What does the source list for `COc1ccc(NC(=O)[C@H]2CC[C@@H](N3Cc4c(C)cccc4C3=O)CC2)cc1C#N` [Example 239, (1s,4s)-N-(3-Cyano-4-methoxyphenyl)-4-(4-methyl-1-oxoisoindolin-2-yl)cyclohexanecarboxamide]?
ΔTm at 10 µM (nLucOGG1 in HeLa cells): 6 to 8 °C; Kd (hOGG1): 10 to 100 nM

How did the ΔTm at 10 µM (nLucOGG1 in HeLa cells) turn out when `COc1ccc(NC(=O)[C@]2(C)CC[C@H](N3Cc4c(C)ccc(OC)c4NC3=O)CC2)cc1Cl` (single isomer, unassigned) [Example 7, (1s,4s)-N-(3-chloro-4-methoxyphenyl)-4-(8-methoxy-5-methyl-2-oxo-1,2-dihydroquinazolin-3(4H)-yl)-1-methylcyclohexanecarboxamide] was run?
The ΔTm at 10 µM was 8 to 10 °C.

What about the Kd (hOGG1) of the same molecule?
The Kd was 10 to 100 nM.

`COc1ccc(NC(=O)[C@]2(C)CC[C@H](N3Cc4c(C)ccc(OC)c4NC3=O)CC2)cc1C` (single isomer, unassigned) [Example 11, (1s,4s)-N-(3-methyl-4-methoxyphenyl)-4-(8-methoxy-5-methyl-2-oxo-1,2-dihydroquinazolin-3(4H)-yl)-1-methylcyclohexanecarboxamide] was tested. Which ΔTm at 10 µM (nLucOGG1 in HeLa cells) did it give?
Its ΔTm at 10 µM is 8 to 10 °C.

And the Kd (hOGG1)?
Its Kd is at most 10 nM.

With `COc1cc(NC(=O)[C@H]2CC[C@@H](N3Cc4c(C)ccc(C#N)c4C3=O)CC2)ccc1C` [Example 143, (1s,4s)-4-(7-Cyano-4-methyl-1-oxoisoindolin-2-yl)-N-(3-methoxy-4-methylphenyl)cyclohexanecarboxamide] as the molecule, how does the ΔTm at 10 µM (nLucOGG1 in HeLa cells) read?
Its ΔTm at 10 µM is 6 to 8 °C.

What about the Kd (hOGG1) of the same molecule?
Its Kd is 10 to 100 nM.

How did the ΔTm at 10 µM (nLucOGG1 in HeLa cells) turn out when `COc1cc(NC(=O)[C@H]2CC[C@@H](N3Cc4ccccc4NC3=O)CC2)ccc1C` [Example 67, (1s,4s)-N-(3-methoxy-4-methylphenyl)-4-(2-oxo-1,2-dihydroquinazolin-3(4H)-yl)cyclohexanecarboxamide] was run?
The ΔTm at 10 µM was 6 to 8 °C.

What about the Kd (hOGG1) of the same molecule?
Its Kd is 10 to 100 nM.

What does the source list for `COc1cc(NC(=O)[C@]2(C)CC[C@H](N3Cc4c(C)cccc4C3=O)CC2)ccc1C` [Example 277, (1s,4s)-N-(3-methoxy-4-methylphenyl)-1-methyl-4-(4-methyl-1-oxoisoindolin-2-yl)cyclohexane-1-carboxamide]?
ΔTm at 10 µM (nLucOGG1 in HeLa cells): 8 to 10 °C; Kd (hOGG1): 10 to 100 nM
